Source: patent US20240180845A1, “THIN-SHELL POLYMERIC NANOPARTICLES AND USES THEREOF” (Academia Sinica, priority 2016, published 2024)

Experiments:
[1] = design: species or system mice; details: mouse, in vivo
Procedure: FIG. […], is a depiction of STING agonist-loaded nanoparticles on enhancing lymphatic cytokines while minimizing systemic cytokines. • A: Induction of TNF-α in a mouse dendritic cell line following incubation with cd-GMP nanoparticles and free cd-GMP. • B: Induction of IL-6 in the same mouse dendritic cell line. • C: Induction of IFN-β in the mouse dendritic cell line. • D: Activation of JAWSII upon incubation with equivalent doses of cd-GMP in free molecule form and in nanoparticle formulation. • E: Quantification of lymph node IFN-β 48 hours following footpad injection of free cd-GMP or nanoparticle cd-GMP. • F: Level of systemic TNF-α following footpad injection of free cd-GMP and nanoparticle cd-GMP. Immune potentiation by the cd-GMP nanoparticles was further compared to free cd-GMP in vivo in mice. 48 hours following footpad injections, the draining popliteal lymph nodes were collected for IFN-β quantification. […] In addition, the systemic level of TNF-α, an indicator of reactogenicity, was also monitored following the footpad administration of free cd-GMP and cd-GMP nanoparticles.

[2] = Encapsulation efficiency and loading of cargoes in thin-shell hollow PLGA nanoparticles; type: physicochemical

serum level of TNF-α, indicator of reactogenicity [1]: elevated level | encapsulation efficiency ([2]; cargo in thin-shell hollow PLGA nanoparticles, listed as cd-GMP): about 40% | STING agonist molecules per nanoparticle ([2]; hollow particles 100 to 200 nm in diameter): approximately 2,000
SMILES: Nc1nc2c(ncn2[C@@H]2O[C@@H]3COP(=O)(O)O[C@H]4[C@@H](O)[C@H](n5cnc6c(=O)[nH]c(N)nc65)O[C@@H]4COP(=O)(O)O[C@H]3[C@H]2O)c(=O)[nH]1 [cyclic di-GMP]
